How the values were obtained:
ATR kinase = biological target: T1, ATR kinase (Homo sapiens, UniProt Q13535); experiment: ATR Inhibition Assay (radioactive-phosphate incorporation); type: biochemical; conditions: Ki(app); 5 nM full-length ATR, 10 μM ATP, 800 μM target peptide, 25° C.
T1 construct: Assays were carried out at 25° C. in the presence of 5 nM full-length ATR
Experimental: Compounds were screened for their ability to inhibit ATR kinase using a radioactive-phosphate incorporation assay. Assays were carried out in a mixture of 50 mM Tris/HCl (pH 7.5), 10 mM MgCl2 and 1 mM DTT. Final substrate concentrations were 10 μM [γ-33P]ATP (3 mCi 33P ATP/mmol ATP, Perkin Elmer) and 800 μM target peptide (ASELPASQPQPFSAKKK (SEQ. ID NO: 1)).
Assays were carried out at 25° C. in the presence of 5 nM full-length ATR. An assay stock buffer solution was prepared containing all of the reagents listed above, with the exception of ATP and the test compound of interest. 13.5 μL of the stock solution was placed in a 96 well plate followed by addition of 2 μL of DMSO stock containing serial dilutions of the test compound (typically starting from a final concentration of 15 μM with 3-fold serial dilutions) in duplicate (final DMSO concentration 7%). The plate was pre-incubated for 10 minutes at 25° C. and the reaction initiated by addition of 15 μL [γ-33P]ATP (final concentration 10 μM).
The reaction was stopped after […] by the addition of 30 μL, 0.1M phosphoric acid containing 2 mM ATP. A multiscreen phosphocellulose filter 96-well plate (Millipore, Cat no. MAPHN0B50) was pretreated with 100 μL 0.2M phosphoric acid prior to the addition of 45 μL of the stopped assay mixture. The plate was washed with 5×200 μL 0.2M phosphoric acid. After drying, 100 μL Optiphase ‘SuperMix’ liquid scintillation cocktail (Perkin Elmer) was added to the well prior to scintillation counting (1450 Microbeta Liquid Scintillation Counter, Wallac).
After removing mean background values for all of the data points, Ki(app) data were calculated from non-linear regression analysis of the initial rate data using the Prism software package (GraphPad Prism version 3.0cx for Macintosh, GraphPad Software, San Diego Calif., USA).
Compounds with a Ki value of <0.01 μM are marked with “+++.” Compounds with a Ki value >0.01 μM but <1 μM are marked with “++.” Compounds with a Ki value >1 μM but <5 μM are marked with “+.”

[1] = test system: HCT116 colorectal cancer cells; experiment: Cisplatin Sensitization Assay (96 h cell viability MTS); type: cell-based; conditions: concentration of compound required to reduce the IC50 of Cisplatin alone by at least 3-fold; HCT116, 96 h MTS
Experimental: Compounds can be screened for their ability to sensitize HCT116 colorectal cancer cells to Cisplatin using a 96 h cell viability (MTS) assay. […] Compounds and Cisplatin are then both added simultaneously to the cell media in 2-fold serial dilutions from a top final concentration of 10 μM as a full matrix of concentrations in a final cell volume of 200 μl, and the cells are then incubated at 37° C. in 5% CO2. After 96 h, 40 μl of MTS reagent (Promega G358a) is added to each well and the cells are incubated for 1 h at 37° C. in 5% CO2. Finally, absorbance is measured at 490 nm using a SpectraMax Plus 384 reader (Molecular Devices) and the concentration of compound required to reduce the IC50 of Cisplatin alone by at least 3-fold (to 1 decimal place) can be reported.
Compounds with a Cisplatin sensitization value of <0.02 μM are marked with “+++.” Compounds with a Cisplatin sensitization value>0.02 μM but <0.2 μM are marked with “++.” Compounds with a Cisplatin sensitization value >0.2 μM but <5 μM are marked with “+.”

T1 sequence (Q13535 whole entry): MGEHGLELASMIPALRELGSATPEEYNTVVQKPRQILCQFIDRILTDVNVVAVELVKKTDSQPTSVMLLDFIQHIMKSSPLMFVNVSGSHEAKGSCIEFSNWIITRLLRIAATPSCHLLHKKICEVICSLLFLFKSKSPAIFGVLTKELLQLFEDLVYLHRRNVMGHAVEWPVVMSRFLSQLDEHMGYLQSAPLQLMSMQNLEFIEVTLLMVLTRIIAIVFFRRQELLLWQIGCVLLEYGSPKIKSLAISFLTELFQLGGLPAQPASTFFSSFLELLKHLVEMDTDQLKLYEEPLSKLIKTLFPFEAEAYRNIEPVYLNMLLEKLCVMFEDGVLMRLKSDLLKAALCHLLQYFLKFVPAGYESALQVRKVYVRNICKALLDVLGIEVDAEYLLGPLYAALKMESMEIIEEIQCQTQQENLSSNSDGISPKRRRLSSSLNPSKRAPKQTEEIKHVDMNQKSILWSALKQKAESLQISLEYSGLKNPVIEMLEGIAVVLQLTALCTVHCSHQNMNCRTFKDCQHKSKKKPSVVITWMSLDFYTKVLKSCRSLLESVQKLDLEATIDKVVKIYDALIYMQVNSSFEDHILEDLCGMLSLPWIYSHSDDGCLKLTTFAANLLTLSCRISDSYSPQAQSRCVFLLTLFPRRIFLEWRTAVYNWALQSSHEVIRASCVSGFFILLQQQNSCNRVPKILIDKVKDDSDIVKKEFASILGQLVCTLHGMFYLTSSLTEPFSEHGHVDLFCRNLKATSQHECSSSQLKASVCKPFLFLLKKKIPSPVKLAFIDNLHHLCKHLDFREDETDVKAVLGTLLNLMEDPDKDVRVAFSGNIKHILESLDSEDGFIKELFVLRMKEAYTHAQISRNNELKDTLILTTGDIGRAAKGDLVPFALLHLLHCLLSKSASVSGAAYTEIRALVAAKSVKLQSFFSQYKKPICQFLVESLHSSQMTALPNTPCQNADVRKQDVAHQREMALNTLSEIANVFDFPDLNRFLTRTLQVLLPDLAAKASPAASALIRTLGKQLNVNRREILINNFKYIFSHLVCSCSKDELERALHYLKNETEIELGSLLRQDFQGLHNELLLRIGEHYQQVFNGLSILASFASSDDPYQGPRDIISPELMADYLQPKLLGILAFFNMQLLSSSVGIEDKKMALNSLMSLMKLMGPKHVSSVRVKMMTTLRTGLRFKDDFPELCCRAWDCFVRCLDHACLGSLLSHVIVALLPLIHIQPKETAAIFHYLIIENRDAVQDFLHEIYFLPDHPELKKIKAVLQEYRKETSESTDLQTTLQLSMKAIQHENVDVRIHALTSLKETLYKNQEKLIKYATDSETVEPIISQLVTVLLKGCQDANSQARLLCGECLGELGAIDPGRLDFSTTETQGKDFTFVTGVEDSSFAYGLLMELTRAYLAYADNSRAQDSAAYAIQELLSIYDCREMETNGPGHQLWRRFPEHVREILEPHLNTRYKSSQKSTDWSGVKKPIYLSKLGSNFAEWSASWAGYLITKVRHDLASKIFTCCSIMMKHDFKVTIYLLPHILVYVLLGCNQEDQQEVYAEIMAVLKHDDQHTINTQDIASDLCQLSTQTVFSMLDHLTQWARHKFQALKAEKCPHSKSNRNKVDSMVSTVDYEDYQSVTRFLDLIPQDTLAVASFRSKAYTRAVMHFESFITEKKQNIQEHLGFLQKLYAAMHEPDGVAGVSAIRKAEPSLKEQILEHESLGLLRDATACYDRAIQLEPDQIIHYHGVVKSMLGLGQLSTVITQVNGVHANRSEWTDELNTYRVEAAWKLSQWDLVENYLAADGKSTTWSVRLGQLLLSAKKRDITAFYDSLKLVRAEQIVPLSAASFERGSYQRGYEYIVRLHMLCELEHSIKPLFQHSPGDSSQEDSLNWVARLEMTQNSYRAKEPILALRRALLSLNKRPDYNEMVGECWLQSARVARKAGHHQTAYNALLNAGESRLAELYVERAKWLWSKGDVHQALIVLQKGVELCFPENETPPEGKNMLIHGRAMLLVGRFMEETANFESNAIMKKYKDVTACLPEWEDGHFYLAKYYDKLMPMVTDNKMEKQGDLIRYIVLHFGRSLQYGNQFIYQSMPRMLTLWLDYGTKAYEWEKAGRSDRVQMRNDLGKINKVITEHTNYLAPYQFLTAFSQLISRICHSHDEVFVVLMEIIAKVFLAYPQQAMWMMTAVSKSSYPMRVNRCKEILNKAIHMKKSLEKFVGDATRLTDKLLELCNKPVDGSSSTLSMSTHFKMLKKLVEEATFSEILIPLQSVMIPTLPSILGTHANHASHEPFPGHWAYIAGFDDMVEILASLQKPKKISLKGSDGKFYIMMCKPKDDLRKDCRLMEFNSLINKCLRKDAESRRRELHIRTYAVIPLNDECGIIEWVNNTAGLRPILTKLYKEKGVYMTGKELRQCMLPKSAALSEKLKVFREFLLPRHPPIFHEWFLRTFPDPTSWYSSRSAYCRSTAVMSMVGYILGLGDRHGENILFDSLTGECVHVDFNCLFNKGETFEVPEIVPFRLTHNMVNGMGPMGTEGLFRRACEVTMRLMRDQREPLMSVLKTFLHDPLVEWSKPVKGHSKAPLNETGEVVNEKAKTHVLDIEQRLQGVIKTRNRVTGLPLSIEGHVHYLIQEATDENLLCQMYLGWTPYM

Row | Compound | Ki (ATR kinase) [nM] | Synergy with Cisplatin [1]
1 | Cc1ccncc1NC(=O)c1c(N)nn2ccc(C(F)(F)F)nc12 [I-C-1, 2-amino-N-(4-methylpyridin-3-yl)-5-(trifluoromethyl)pyrazolo[1,5-a]pyrimidine-3-carboxamide] | 10 to 1000 | ++ (Compounds with a Cisplatin sensitization value>0.02 μM but <0.2 μM are marked with “++.”)
2 | Nc1nn2ccc(C(F)(F)F)nc2c1C(=O)Nc1cnccc1-c1ccccc1 [I-C-2, 2-amino-N-(4-phenylpyridin-3-yl)-5-(trifluoromethyl)pyrazolo[1,5-a]pyrimidine-3-carboxamide] | 10 to 1000 | + (Compounds with a Cisplatin sensitization value >0.2 μM but <5 μM are marked with “+.”)
3 | Cc1ccncc1NC(=O)c1c(N)nn2ccc(OCCN(C)C)nc12 [I-C-3, 2-amino-5-(2-(dimethylamino)ethoxy)-N-(4-methylpyridin-3-yl)pyrazolo[1,5-a]pyrimidine-3-carboxamide] | 1000 to 5000 | ++ (Compounds with a Cisplatin sensitization value>0.02 μM but <0.2 μM are marked with “++.”)
4 | CN1CCN(c2ccncc2NC(=O)c2c(N)nn3ccc(C(F)(F)F)nc23)CC1 [I-N-1, 2-amino-N-(4-(4-methylpiperazin-1-yl)pyridin-3-yl)-5-(trifluoromethyl)pyrazolo[1,5-a]pyrimidine-3-carboxamide] | 10 to 1000 | + (Compounds with a Cisplatin sensitization value >0.2 μM but <5 μM are marked with “+.”)
5 | NCC1CCN(c2ccncc2NC(=O)c2c(N)nn3ccc(C(F)(F)F)nc23)CC1 [I-N-2, 2-amino-N-(4-(4-(aminomethyl)piperidin-1-yl)pyridin-3-yl)-5-(trifluoromethyl)pyrazolo[1,5-a]pyrimidine-3-carboxamide] | 10 to 1000 | 
6 | Nc1nn2ccc(C(F)(F)F)nc2c1C(=O)Nc1cnccc1N1CCN(CCO)CC1 [I-N-3, 2-amino-N-(4-(4-(2-hydroxyethyl)piperazin-1-yl)pyridin-3-yl)-5-(trifluoromethyl)pyrazolo[1,5-a]pyrimidine-3-carboxamide] | 10 to 1000 | 
7 | COc1ccncc1NC(=O)c1c(N)nn2ccc(C(F)(F)F)nc12 [I-O-1, 2-amino-N-(4-methoxypyridin-3-yl)-5-(trifluoromethyl)pyrazolo[1,5-a]pyrimidine-3-carboxamide] | < 10 | +++ (Compounds with a Cisplatin sensitization value of <0.02 μM are marked with “+++.”)
8 | Nc1nn2ccc(C(F)(F)F)nc2c1C(=O)Nc1cnccc1OC1CCC2(CC1)OCCO2 [I-O-7, N-(4-(1,4-dioxaspiro[4.5]decan-8-yloxy)pyridin-3-yl)-2-amino-5-(trifluoromethyl)pyrazolo[1,5-a]pyrimidine-3-carboxamide] | 10 to 1000 | 
9 | Nc1nn2ccc(C(F)(F)F)nc2c1C(=O)Nc1cnccc1OC1CN2CCC1CC2 (stereo not drawn) [I-O-29, 2-amino-N-(4-(quinuclidin-3-yloxy)pyridin-3-yl)-5-(trifluoromethyl)pyrazolo[1,5-a]pyrimidine-3-carboxamide] | 10 to 1000 | 
10 | CN1CC(Oc2ccncc2NC(=O)c2c(N)nn3ccc(C(F)(F)F)nc23)C1 [I-O-39, 2-amino-N-(4-((1-methylazetidin-3-yl)oxy)pyridin-3-yl)-5-(trifluoromethyl)pyrazolo[1,5-a]pyrimidine-3-carboxamide] | 10 to 1000 | 
11 | CC(C)(C#N)c1ccn2nc(N)c(C(=O)Nc3cnccc3OC3CNC3)c2n1 [I-O-53, 2-amino-N-(4-(azetidin-3-yloxy)pyridin-3-yl)-5-(2-cyanopropan-2-yl)pyrazolo[1,5-a]pyrimidine-3-carboxamide] | 10 to 1000 | 
12 | COc1ccncc1NC(=O)c1c(N)nn2ccc(N3CC4(COC4)C3)nc12 [I-O-69, 2-amino-N-(4-methoxypyridin-3-yl)-5-(2-oxa-6-azaspiro[3.3]heptan-6-yl)pyrazolo[1,5-a]pyrimidine-3-carboxamide] | 10 to 1000 | 
13 | CNC1CCN(c2ccn3nc(N)c(C(=O)Nc4cnccc4OC)c3n2)C1 (stereo not drawn) [I-O-81, 2-amino-N-(4-methoxypyridin-3-yl)-5-(3-(methylamino)pyrrolidin-1-yl)pyrazolo[1,5-a]pyrimidine-3-carboxamide] | 10 to 1000 | 
